The text below walks through data of patent US9725468B2, “C5-spiro iminothiazine dioxides as BACE inhibitors, compositions, and their use” (Merck Sharp & Dohme Corp., priority 2013, dated 2017).

The target in assay [1] is T1, purified human autoBACE-2 (Homo sapiens, UniProt Q9Y5Z0).
T1 sequence (Q9Y5Z0 63-473 limits assumed): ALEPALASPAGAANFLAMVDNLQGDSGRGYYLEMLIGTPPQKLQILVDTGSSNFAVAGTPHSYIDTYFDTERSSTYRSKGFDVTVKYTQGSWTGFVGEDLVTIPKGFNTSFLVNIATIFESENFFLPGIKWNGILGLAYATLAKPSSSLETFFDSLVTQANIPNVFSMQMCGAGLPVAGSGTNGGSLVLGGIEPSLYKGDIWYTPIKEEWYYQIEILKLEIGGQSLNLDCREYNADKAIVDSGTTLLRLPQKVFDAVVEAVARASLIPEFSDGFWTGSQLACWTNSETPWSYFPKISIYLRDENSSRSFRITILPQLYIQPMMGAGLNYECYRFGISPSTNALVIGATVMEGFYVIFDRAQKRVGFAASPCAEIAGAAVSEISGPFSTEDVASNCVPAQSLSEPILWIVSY
Nature of the assay: BACE-2 Assay (BACE-HTRF assay). In kind it is biochemical. The settings on record: Ki calculated from IC50 using the Cheng-Prusoff equation; QSY7-EISEVNLDAEFC-Eu-amide substrate 200 nM, pH 5.0; read-out: BACE2 Ki. As to the method: Inhibitor ICsos at purified human autoBACE-2 are determined in a time-resolved endpoint proteolysis assay that measures hydrolysis of the QSY7-EISEVNLDAEFC-Eu-amide FRET peptide substrate (BACE-HTRF assay). BACE-mediated hydrolysis of this peptide results in an increase in relative fluorescence (RFU) at 620 nm after excitation with 320 nm light. Inhibitor compounds, prepared at 3× the desired final concentration in 1×BACE assay buffer (20 mM sodium acetate pH 5.0, 10% glycerol, 0.1% Brij-35) supplemented with 7.5% DMSO are preincubated with an equal volume of autoBACE-2 enzyme diluted in 1×BACE assay buffer (final enzyme concentration 1 nM) in black 384-well NUNC plates for 30 minutes at 30° C. The assay is initiated by addition of an equal volume of the QSY7-EISEVNLDAEFC-Eu-amide substrate (200 nM final concentration, […]) prepared in 1×BACE assay buffer supplemented with 7.5% DMSO and incubated for 90 minutes at 30° C. DMSO is present at 5% final concentration in the assay. Following laser excitation of sample wells at 320 nm, the fluorescence signal at 620 nm is collected for 400 ms following a 50 μs delay on a RUBYstar HTRF plate reader (BMG Labtechnologies). Raw RFU data is normalized to maximum (1.0 nM BACE/DMSO) and minimum (no enzyme/DMSO) RFU values. IC50s are determined by nonlinear regression analysis (sigmoidal dose response, variable slope) of percent inhibition data with minimum and maximum values set to 0 and 100 percent respectively. Similar IC50s are obtained when using raw RFU data. The Ki values are calculated from the IC50 using the Cheng-Prusoff equation.

Assay [2] has as its target soluble human BACE1 catalytic domain (Homo sapiens, UniProt P56817). The assay can be described thus: BACE1 HTRF FRET Assay. In kind it is biochemical. The settings on record: Ki calculated from IC50 using the Cheng-Prusoff equation; QSY7-APPswe-Eu substrate 200 nM, pH 5.0. From the text: Na^+-Acetate pH 5.0; 1% Brij-35; Glycerol; Dimethyl Sulfoxide (DMSO); Recombinant human soluble BACE1 catalytic domain (>95% pure); APP Swedish mutant peptide substrate (QSY7-APP^swe-Eu): QSY7-EISEVNLDAEFC-Europium-amide.
A homogeneous time-resolved FRET assay can be used to determine IC50 values for inhibitors of the soluble human BACE1 catalytic domain. This assay monitors the increase of 620 nm fluorescence that resulted from BACE1 cleavage of an APPswedish APP^swe mutant peptide FRET substrate (QSY7-EISEVNLDAEFC-Europium-amide). This substrate contains an N-terminal QSY7 moiety that serves as a quencher of the C-terminal Europium fluorophore (620 nm Em). In the absence of enzyme activity, 620 nm fluorescence is low in the assay and increased linearly over 3 hours in the presence of uninhibited BACE1 enzyme. Inhibition of BACE1 cleavage of the QSY7-APP^swe-Eu substrate by inhibitors is manifested as a suppression of 620 nm fluorescence.
Varying concentrations of inhibitors at 3× the final desired concentration in a volume of 10 ul are preincubated with purified human BACE1 catalytic domain (3 nM in 10 μl) for 30 minutes at 30° C. in reaction buffer containing 20 mM Na-Acetate pH 5.0, 10% glycerol, 0.1% Brij-35 and 7.5% DSMO. Reactions are initiated by addition of 10 μl of 600 nM QSY7-APP^swe-Eu substrate (200 nM final) to give a final reaction volume of 30 μl in a 384 well Nunc HTRF plate. The reactions are incubated at 30° C. for 1.5 hours. The 620 nm fluorescence is then read on a Rubystar HTRF plate reader (BMG Labtechnologies) using a 50 millisecond delay followed by a 400 millisecond acquisition time window. Inhibitor IC50 values are derived from non-linear regression analysis of concentration response curves. Ki values are then calculated from IC50 values using the Cheng-Prusoff equation using a previously determined […] for the QSY7-APP^swe-Eu substrate at BACE1.

Chain of soluble human BACE1 catalytic domain (P56817 75-416 limits assumed): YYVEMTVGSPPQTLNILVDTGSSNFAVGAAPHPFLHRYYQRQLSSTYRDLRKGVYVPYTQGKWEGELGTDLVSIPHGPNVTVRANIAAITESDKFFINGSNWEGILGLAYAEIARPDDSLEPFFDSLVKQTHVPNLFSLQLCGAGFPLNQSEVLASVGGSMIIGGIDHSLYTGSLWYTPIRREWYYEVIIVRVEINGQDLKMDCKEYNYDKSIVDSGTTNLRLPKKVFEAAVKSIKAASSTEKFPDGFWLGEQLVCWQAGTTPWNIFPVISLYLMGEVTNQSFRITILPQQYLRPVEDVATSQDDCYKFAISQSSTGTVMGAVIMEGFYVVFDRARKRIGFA

As to `CC1(C)C(=N)N[C@@]2(COCc3ccc(NC(=O)c4ccn(C(F)F)n4)cc32)CS1(=O)=O` [Example E-7], the results for the Ki in assay [1] and in assay [2] were 2 nM and 12 nM, respectively.
As for `CC1(C)C(=N)N[C@@]2(COCc3ccc(NC(=O)c4cnc(C(F)(F)F)cn4)cc32)CS1(=O)=O` [Example E-21], the Ki (usually the dissociation constant of the complex between target and ligand, obtained from inhibition or displacement) in assay [1] was 583 nM; in assay [2], 231 nM.
In the same order, the values of `CC1(C)C(=N)N[C@@]2(COCc3ccc(NC(=O)c4ccc(F)cn4)cc32)CS1(=O)=O` [Example E-13] are 17 nM and 127 nM.
Turning to `COc1ccc(C(=O)Nc2ccc3c(c2)[C@]2(CCC3)CS(=O)(=O)C(C)(C)C(=N)N2)nc1` [Example G-20], the inhibition constant Ki in assay [1] is 7 nM; in assay [2], 31 nM.
In the case of `CC1(C)C(=N)N[C@@]2(CCOc3ccc(NC(=O)c4cn5cc(C#N)ccc5n4)cc32)CS1(=O)=O` [Example C-8], the Ki in assay [1] is 157 nM; in assay [2], 121 nM.
For the molecule `CC1(C)C(=N)N[C@@]2(COCc3ccc(NC(=O)c4cc5ccccn5n4)cc32)CS1(=O)=O` [Example E-2], the Ki is 200 nM in assay [1] and 1200 nM in assay [2].
In the same order, the values of `CC1(C)C(=N)N[C@@]2(CCCc3ccc(NC(=O)c4cc5ccccn5n4)cc32)CS1(=O)=O` [Example G-3] are 74 nM and 503 nM.
In the case of `COc1cnc(C(=O)Nc2ccc3c(c2)[C@]2(CCC3)CS(=O)(=O)C(C)(C)C(=N)N2)cn1` [Example G-11], the Ki in assay [1] was 57 nM; in assay [2], 92 nM.
